In PMC8703412 (Pharmaceuticals, 2021):
≈ marks a conversion by molar mass, not a printed value. Read-outs that look alike come from different tables or passages of the source.

Key:
Experiment in all cases: microbe, parasite or virus in culture
Type in all cases: cell-based, Mycobacterium tuberculosis
Details in all cases: for MIC: Mycobacterium tuberculosis
[1] = test system: Mtb. Praha 1 (MDR-TB)
[2] = test system: Mtb. Praha 4 (MDR-TB)
[3] = test system: Mtb. Praha 131 (XDR-TB)
[4] = test system: Mtb. 234/2005 (MDR-TB)
[5] = test system: Mtb. 9449/2007 (MDR-TB)
[6] = test system: Mtb. 7357/1998 (MDR-TB)
[7] = test system: Mtb. 8666/2010 (MDR-TB)
[8] = 336 h, read-out: MIC Mtb. Praha 1 14 d
[9] = 504 h, read-out: MIC Mtb. Praha 1 21 d
[10] = 336 h, read-out: MIC Mtb. Praha 4 14 d
[11] = 504 h, read-out: MIC Mtb. Praha 4 21 d
[12] = 336 h, read-out: MIC Mtb. Praha 131 14 d
[13] = 504 h, read-out: MIC Mtb. Praha 131 21 d
[14] = 336 h, read-out: MIC Mtb. 234/2005 14 d
[15] = 504 h, read-out: MIC Mtb. 234/2005 21 d
[16] = 336 h, read-out: MIC Mtb. 9449/2007 14 d
[17] = 504 h, read-out: MIC Mtb. 9449/2007 21 d
[18] = 336 h, read-out: MIC Mtb. 7357/1998 14 d
[19] = 504 h, read-out: MIC Mtb. 7357/1998 21 d
[20] = 336 h, read-out: MIC Mtb. 8666/2010 14 d
[21] = 504 h, read-out: MIC Mtb. 8666/2010 21 d

Molecule | MIC [1, 8] [µM] | MIC [1, 9] [µM] | MIC [2, 10] [µM] | MIC [2, 11] [µM] | MIC [3, 12] [µM] | MIC [3, 13] [µM] | MIC [4, 14] [µM] | MIC [4, 15] [µM] | MIC [5, 16] [µM] | MIC [5, 17] [µM] | MIC [6, 18] [µM] | MIC [6, 19] [µM] | MIC [7, 20] [µM] | MIC [7, 21] [µM] | also measured
C/C(=N\NC(=O)c1ccncc1)C(=O)Sc1ccccc1 [3s, S-Phenyl (E)-2-(2-isonicotinoylhydrazineylidene)propanethioate] | 64 (≈ 19.2 µg/mL) | 125 (≈ 37.4 µg/mL) | 32 (≈ 9.58 µg/mL) | 64 (≈ 19.2 µg/mL) | 32 (≈ 9.58 µg/mL) | 64 (≈ 19.2 µg/mL) | 32 (≈ 9.58 µg/mL) | 64 (≈ 19.2 µg/mL) | 64 (≈ 19.2 µg/mL) | 64 (≈ 19.2 µg/mL) | 32 (≈ 9.58 µg/mL) | 64 (≈ 19.2 µg/mL) | 32 (≈ 9.58 µg/mL) | 32 (≈ 9.58 µg/mL) | –
5-Isopropyl-2-methylphenyl (E)-2-(2-isonicotinoylhydrazineylidene)propanoate [3k] | – | – | – | – | – | – | – | – | – | – | – | – | – | – | MIC Mtb. Praha 1 14 d ([1]; 14 d incubation): 125 µM; MIC Mtb. Praha 1 21 d ([1]; 21 d incubation): 125 µM; MIC Mtb. Praha 4 14 d ([2]; 14 d incubation): 16 µM; MIC Mtb. Praha 4 21 d ([2]; 21 d incubation): 32 µM; MIC Mtb. Praha 131 14 d ([3]; 14 d incubation): 32 µM; MIC Mtb. Praha 131 21 d ([3]; 21 d incubation): 64 µM; MIC Mtb. 234/2005 14 d ([4]; 14 d incubation): 32 µM; MIC Mtb. 234/2005 21 d ([4]; 21 d incubation): 32 µM; MIC Mtb. 9449/2007 14 d ([5]; 14 d incubation): 32 µM; MIC Mtb. 9449/2007 21 d ([5]; 21 d incubation): 32 µM; MIC Mtb. 7357/1998 14 d ([6]; 14 d incubation): 32 µM; MIC Mtb. 7357/1998 21 d ([6]; 21 d incubation): 32 µM; MIC Mtb. 8666/2010 14 d ([7]; 14 d incubation): 16 µM; MIC Mtb. 8666/2010 21 d ([7]; 21 d incubation): 32 µM
C/C(=N\NC(=O)c1ccncc1)C(=O)Oc1cccc2ccccc12 [3i, Naphthalen-1-yl (E)-2-(2-isonicotinoylhydrazineylidene)propanoate] | 64 (≈ 21.3 µg/mL) | 125 (≈ 41.7 µg/mL) | 16 (≈ 5.33 µg/mL) | 32 (≈ 10.7 µg/mL) | 32 (≈ 10.7 µg/mL) | 32 (≈ 10.7 µg/mL) | 16 (≈ 5.33 µg/mL) | 32 (≈ 10.7 µg/mL) | 32 (≈ 10.7 µg/mL) | 32 (≈ 10.7 µg/mL) | 16 (≈ 5.33 µg/mL) | 32 (≈ 10.7 µg/mL) | 16 (≈ 5.33 µg/mL) | 16 (≈ 5.33 µg/mL) | –
C/C(=N\NC(=O)c1ccncc1)C(=O)Oc1cccc2cccnc12 [3m, Quinolin-8-yl (E)-2-(2-isonicotinoylhydrazineylidene)propanoate] | 8 (≈ 2.67 µg/mL) | 8 (≈ 2.67 µg/mL) | 8 (≈ 2.67 µg/mL) | 8 (≈ 2.67 µg/mL) | 8 (≈ 2.67 µg/mL) | 8 (≈ 2.67 µg/mL) | 8 (≈ 2.67 µg/mL) | 8 (≈ 2.67 µg/mL) | 8 (≈ 2.67 µg/mL) | 8 (≈ 2.67 µg/mL) | 8 (≈ 2.67 µg/mL) | 8 (≈ 2.67 µg/mL) | 8 (≈ 2.67 µg/mL) | 8 (≈ 2.67 µg/mL) | –
C/C(=N\NC(=O)c1ccncc1)C(=O)Oc1ccc(Cl)cc1 [3g, 4-Chlorophenyl (E)-2-(2-isonicotinoylhydrazineylidene)propanoate] | 8 (≈ 2.54 µg/mL) | 8 (≈ 2.54 µg/mL) | 16 (≈ 5.08 µg/mL) | 16 (≈ 5.08 µg/mL) | 8 (≈ 2.54 µg/mL) | 8 (≈ 2.54 µg/mL) | 16 (≈ 5.08 µg/mL) | 32 (≈ 10.2 µg/mL) | 16 (≈ 5.08 µg/mL) | 16 (≈ 5.08 µg/mL) | 16 (≈ 5.08 µg/mL) | 16 (≈ 5.08 µg/mL) | 8 (≈ 2.54 µg/mL) | 16 (≈ 5.08 µg/mL) | –
C/C(=N\NC(=O)c1ccncc1)C(=O)Oc1ccc2ccccc2c1 [3j, Naphthalen-2-yl (E)-2-(2-isonicotinoylhydrazineylidene)propanoate] | 125 (≈ 41.7 µg/mL) | 125 (≈ 41.7 µg/mL) | 32 (≈ 10.7 µg/mL) | 32 (≈ 10.7 µg/mL) | 32 (≈ 10.7 µg/mL) | 32 (≈ 10.7 µg/mL) | 16 (≈ 5.33 µg/mL) | 32 (≈ 10.7 µg/mL) | 32 (≈ 10.7 µg/mL) | 32 (≈ 10.7 µg/mL) | 32 (≈ 10.7 µg/mL) | 32 (≈ 10.7 µg/mL) | 16 (≈ 5.33 µg/mL) | 32 (≈ 10.7 µg/mL) | –
C/C(=N\NC(=O)c1ccncc1)C(=O)OCCn1c([N+](=O)[O-])cnc1C [3q, 2-(2-Methyl-5-nitro-1H-imidazol-1-yl)ethyl (E)-2-(2 isonicotinoylhydrazineylidene)propanoate] | 125 (≈ 45 µg/mL) | 125 (≈ 45 µg/mL) | 32 (≈ 11.5 µg/mL) | 32 (≈ 11.5 µg/mL) | 16 (≈ 5.77 µg/mL) | 32 (≈ 11.5 µg/mL) | 32 (≈ 11.5 µg/mL) | 32 (≈ 11.5 µg/mL) | 32 (≈ 11.5 µg/mL) | 32 (≈ 11.5 µg/mL) | 16 (≈ 5.77 µg/mL) | 32 (≈ 11.5 µg/mL) | 16 (≈ 5.77 µg/mL) | 16 (≈ 5.77 µg/mL) | –
C/C(=N\NC(=O)c1ccncc1)C(=O)Oc1ccccc1 [3b, Phenyl (E)-2-(2-isonicotinoylhydrazineylidene)propanoate] | 16 (≈ 4.53 µg/mL) | 16 (≈ 4.53 µg/mL) | 16 (≈ 4.53 µg/mL) | 16 (≈ 4.53 µg/mL) | 16 (≈ 4.53 µg/mL) | 16 (≈ 4.53 µg/mL) | 32 (≈ 9.07 µg/mL) | 32 (≈ 9.07 µg/mL) | 32 (≈ 9.07 µg/mL) | 32 (≈ 9.07 µg/mL) | 16 (≈ 4.53 µg/mL) | 16 (≈ 4.53 µg/mL) | 16 (≈ 4.53 µg/mL) | 16 (≈ 4.53 µg/mL) | –
CC(=O)Nc1ccc(OC(=O)C(C)=NNC(=O)c2ccncc2)cc1 [3p, 4-Acetamidophenyl 2-(2-isonicotinoylhydrazineylidene)propanoate] | 125 (≈ 42.5 µg/mL) | 125 (≈ 42.5 µg/mL) | 32 (≈ 10.9 µg/mL) | 32 (≈ 10.9 µg/mL) | 32 (≈ 10.9 µg/mL) | 64 (≈ 21.8 µg/mL) | 32 (≈ 10.9 µg/mL) | 64 (≈ 21.8 µg/mL) | 32 (≈ 10.9 µg/mL) | 64 (≈ 21.8 µg/mL) | 16 (≈ 5.45 µg/mL) | 32 (≈ 10.9 µg/mL) | 32 (≈ 10.9 µg/mL) | 32 (≈ 10.9 µg/mL) | –
C/C(=N\NC(=O)c1ccncc1)C(=O)Oc1cc(C(C)C)ccc1C [3l, 2-Isopropyl-5-methyphenyl (E)-2-(2-isonicotinoylhydrazineylidene)propanoate] | 32 (≈ 10.9 µg/mL) | 64 (≈ 21.7 µg/mL) | 8 (≈ 2.72 µg/mL) | 16 (≈ 5.43 µg/mL) | 32 (≈ 10.9 µg/mL) | 64 (≈ 21.7 µg/mL) | 16 (≈ 5.43 µg/mL) | 32 (≈ 10.9 µg/mL) | 16 (≈ 5.43 µg/mL) | 32 (≈ 10.9 µg/mL) | 16 (≈ 5.43 µg/mL) | 32 (≈ 10.9 µg/mL) | 16 (≈ 5.43 µg/mL) | 16 (≈ 5.43 µg/mL) | –
COc1ccc(OC(=O)/C(C)=N/NC(=O)c2ccncc2)cc1 [3d, 4-Methoxyphenyl (E)-2-(2-isonicotinoylhydrazineylidene)propanoate] | 8 (≈ 2.51 µg/mL) | 16 (≈ 5.01 µg/mL) | 16 (≈ 5.01 µg/mL) | 32 (≈ 10 µg/mL) | 8 (≈ 2.51 µg/mL) | 16 (≈ 5.01 µg/mL) | 16 (≈ 5.01 µg/mL) | 32 (≈ 10 µg/mL) | 16 (≈ 5.01 µg/mL) | 16 (≈ 5.01 µg/mL) | 16 (≈ 5.01 µg/mL) | 16 (≈ 5.01 µg/mL) | 8 (≈ 2.51 µg/mL) | 16 (≈ 5.01 µg/mL) | –
C/C(=N\NC(=O)c1ccncc1)C(=O)Oc1cc(Cl)ccc1Oc1ccc(Cl)cc1Cl [3o, 5-Chloro-2-(2,4-dichlorophenoxy)phenyl (E)-2-(2-isonicotinoylhydrazineylidene)propanoate] | 125 (≈ 59.8 µg/mL) | 125 (≈ 59.8 µg/mL) | 32 (≈ 15.3 µg/mL) | 32 (≈ 15.3 µg/mL) | 32 (≈ 15.3 µg/mL) | 32 (≈ 15.3 µg/mL) | 32 (≈ 15.3 µg/mL) | 32 (≈ 15.3 µg/mL) | 32 (≈ 15.3 µg/mL) | 32 (≈ 15.3 µg/mL) | 32 (≈ 15.3 µg/mL) | 32 (≈ 15.3 µg/mL) | 32 (≈ 15.3 µg/mL) | 32 (≈ 15.3 µg/mL) | –
